# Measured values published in EP2271935B1, “METHOD AND KIT FOR THE EX VIVO EVALUATION OF THE RESPONSE OF A TUMOR TO CONDITIONS TO BE TESTED” (Universität Leipzig, priority 2008, dated 2009).
# Where two headings read alike, the source gives them in different places.
# Tested on: epithelial cell line KB (DSMZ ACC 136)
# Assay: MTT assay of proliferation under varied riboflavin content and light exposure
# Assay type: cell-based, human
# Text: To address this question, three media, a) the RPMI 1640 without riboflavin and phenol red that is used in the method according to the invention and was manufactured according to our specifications by Biochrom, as well as two different RPMI 1640 charges purchased from Invitrogen which were each containing 532 nmol/L riboflavin, b) a phenol red-free (Gibco 11835), and c) a conventional RPMI 1640 (Gibco 21875) with 13.284 µmol/L phenol red. All media were supplemented with 2 mmol/L L-alanyl-1-glutamine as stabilized glutamine source (Biochrom K0302 Lot 0755 S) and the same amount of 10% (v/v) of heat-inactivated fetal calf serum (FCS) that was purchased from Invitrogen (Lot 41Q7554K) with a yield of 198 nmol/L riboflavin. […] These medium concentrations define the riboflavin concentrations in controls (see below).
# In addition to the influences exerted by the different types of media alone, the riboflavin-dependent impact on the outcome of the docetaxel treatment was investigated. For this purpose 100 µl/well of docetaxel dilutions containing threefold the concentration indicated were added into the wells of microwell plates. The following seven docetaxel concentrations were tested: 19.38, 38.75, 77.5, 155, 310, 620, and 1,240 pmol/L.
# To examine photoactivation-dependent riboflavin-mediated effects disturbing the outcome of ex-vivo chemoresponse-evaluation by conventional cell culture medium, and in particular in the absence of flavin-protecting experimental conditions, varying amounts of riboflavin were added. A stock solution of 200 µM (-)-riboflavin (CAS 83-68-5, Sigma R9504, FW=376.37 g/mol, purity >99%, cell culture tested) in phosphate buffered saline was diluted to adjust in each case the highest final concentration in culture (this means: after completion of the assay by addition of the other two components to the final assay volume of 300 µL) to exactly 10 µmol/L. Serial log10-dilutions were made from this concentration in each corresponding medium. These gave final concentrations in cell culture of 10.000, 1.018, 0.12, and 0.03 µmol/L in the case of medium a) (the medium according to the method of the invention), and concentrations of 10.000, 1.449, 0.594, and 0.508 µmol/L using media b) and c).
# In general, each combination of riboflavin and docetaxel were tested in duplicate, and controls without additional riboflavin in quadruplicate for each experimental setting in the same 96-well plate. The experimental conditions were as follows: For each of the used media, two different plates were prepared simultaneously and either handled completely under flavin-protecting conditions (illumination only by sodium discharge lamps with an emission wavelength of 589 nm [i]), or in the same bench (Thermo MSC 12) with the installed light inside their working chamber switched on. The dilution of docetaxel and those of riboflavin in the particular medium were prepared for all four plates of each medium type prior to the other working steps under flavin-protecting conditions. Thus the administrations of these dilutions took about 20 min either under flavin-protecting conditions or illuminated conditions. After completed preparation of the plates that thereafter contained 200 µL of both diluted compounds, the plates were incubated 2 h in the incubator to allow for adjustment of the appropriate pH.
# In between the stock culture of KB was harvested by trypsination of a 3-days stock culture (exponential growth phase). Stock cultures of KB cells always were grown without any antibiotic or antimycotic in phenol red- and riboflavin-free RPMI 1640 supplemented with 10% (v/v) FCS and were adapted to this medium for more than five passages. They were always handled at room temperature or warmer and were never exposed to light other than the light of a sodium discharge lamp with an emission wavelength of 589 nm for at least five passages. […]
compound,measurement,setting,value
CC(=O)O[C@@]12CO[C@@H]1C[C@H](O)[C@@]1(C)C(=O)[C@H](O)C3=C(C)[C@@H](OC(=O)[C@H](O)[C@@H](NC(=O)OC(C)(C)C)c4ccccc4)C[C@@](O)([C@@H](OC(=O)c4ccccc4)[C@H]21)C3(C)C [docetaxel],IC50,"Homo sapiens, Epithelial cell, 0.5 h, Plate No. 06; Riboflavin 594 nmol/L; medium b), daylight 30 min, read-out: IC50 for docetaxel normalized to medium control of medium with same riboflavin content",0.0838 nM
same,IC50,"Homo sapiens, Epithelial cell, 0.5 h, Plate No. 07; Riboflavin 499 nmol/L; medium b) phenol red-free RPMI 1640, bench lighting <30 min, read-out: IC50 for docetaxel with reference to control with same riboflavin content",0.169 nM
same,IC50,"Homo sapiens, Epithelial cell, 0.5 h, Plate No. 07; Riboflavin 499 nmol/L; medium b), bench lighting <30 min, read-out: IC50 for docetaxel normalized to medium control of medium with same riboflavin content",0.1 nM
same,IC50,"Homo sapiens, Epithelial cell, 0.5 h, Plate No. 07; Riboflavin 508 nmol/L; medium b) phenol red-free RPMI 1640, bench lighting <30 min, read-out: IC50 for docetaxel with reference to control with same riboflavin content",0.124 nM
same,IC50,"Homo sapiens, Epithelial cell, 0.5 h, Plate No. 07; Riboflavin 508 nmol/L; medium b), bench lighting <30 min, read-out: IC50 for docetaxel normalized to medium control of medium with same riboflavin content",0.0735 nM
same,IC50,"Homo sapiens, Epithelial cell, 0.5 h, Plate No. 07; Riboflavin 594 nmol/L; medium b) phenol red-free RPMI 1640, bench lighting <30 min, read-out: IC50 for docetaxel with reference to control with same riboflavin content",0.172 nM
same,IC50,"Homo sapiens, Epithelial cell, 0.5 h, Plate No. 07; Riboflavin 594 nmol/L; medium b), bench lighting <30 min, read-out: IC50 for docetaxel normalized to medium control of medium with same riboflavin content",0.102 nM
same,IC50,"Homo sapiens, Epithelial cell, 0.5 h, Plate No. 07; Riboflavin 1449 nmol/L; medium b) phenol red-free RPMI 1640, bench lighting <30 min, read-out: IC50 for docetaxel with reference to control with same riboflavin content",0.128 nM
same,IC50,"Homo sapiens, Epithelial cell, 0.5 h, Plate No. 07; Riboflavin 1449 nmol/L; medium b), bench lighting <30 min, read-out: IC50 for docetaxel normalized to medium control of medium with same riboflavin content",0.0759 nM
same,IC50,"Homo sapiens, Epithelial cell, 0.5 h, Plate No. 07; Riboflavin 10000 nmol/L; medium b) phenol red-free RPMI 1640, bench lighting <30 min, read-out: IC50 for docetaxel with reference to control with same riboflavin content",0.135 nM
same,IC50,"Homo sapiens, Epithelial cell, 0.5 h, Plate No. 07; Riboflavin 10000 nmol/L; medium b), bench lighting <30 min, read-out: IC50 for docetaxel normalized to medium control of medium with same riboflavin content",0.0801 nM
same,IC50,"Homo sapiens, Epithelial cell, 0.5 h, Plate No. 08; Riboflavin 499 nmol/L; medium b) phenol red-free RPMI 1640, bench lighting <30 min, daylight 30 min, read-out: IC50 for docetaxel with reference to control with same riboflavin content",0.181 nM
same,IC50,"Homo sapiens, Epithelial cell, 0.5 h, Plate No. 08; Riboflavin 499 nmol/L; medium b), bench lighting <30 min, daylight 30 min, read-out: IC50 for docetaxel normalized to medium control of medium with same riboflavin content",0.1 nM
same,IC50,"Homo sapiens, Epithelial cell, 0.5 h, Plate No. 08; Riboflavin 508 nmol/L; medium b) phenol red-free RPMI 1640, bench lighting <30 min, daylight 30 min, read-out: IC50 for docetaxel with reference to control with same riboflavin content",0.186 nM
same,IC50,"Homo sapiens, Epithelial cell, 0.5 h, Plate No. 08; Riboflavin 508 nmol/L; medium b), bench lighting <30 min, daylight 30 min, read-out: IC50 for docetaxel normalized to medium control of medium with same riboflavin content",0.103 nM
same,IC50,"Homo sapiens, Epithelial cell, 0.5 h, Plate No. 08; Riboflavin 594 nmol/L; medium b) phenol red-free RPMI 1640, bench lighting <30 min, daylight 30 min, read-out: IC50 for docetaxel with reference to control with same riboflavin content",0.208 nM
same,IC50,"Homo sapiens, Epithelial cell, 0.5 h, Plate No. 08; Riboflavin 594 nmol/L; medium b), bench lighting <30 min, daylight 30 min, read-out: IC50 for docetaxel normalized to medium control of medium with same riboflavin content",0.115 nM
same,IC50,"Homo sapiens, Epithelial cell, 0.5 h, Plate No. 10; Riboflavin 499 nmol/L; medium c) conventional RPMI 1640 with phenol red, daylight 30 min, read-out: IC50 for docetaxel with reference to control with same riboflavin content",0.421 nM
same,IC50,"Homo sapiens, Epithelial cell, 0.5 h, Plate No. 10; Riboflavin 499 nmol/L; medium c), daylight 30 min, read-out: IC50 for docetaxel normalized to medium control of medium with same riboflavin content",0.1 nM
same,IC50,"Homo sapiens, Epithelial cell, 0.5 h, Plate No. 10; Riboflavin 508 nmol/L; medium c) conventional RPMI 1640 with phenol red, daylight 30 min, read-out: IC50 for docetaxel with reference to control with same riboflavin content",0.337 nM
same,IC50,"Homo sapiens, Epithelial cell, 0.5 h, Plate No. 10; Riboflavin 508 nmol/L; medium c), daylight 30 min, read-out: IC50 for docetaxel normalized to medium control of medium with same riboflavin content",0.0801 nM
same,IC50,"Homo sapiens, Epithelial cell, 0.5 h, Plate No. 10; Riboflavin 594 nmol/L; medium c) conventional RPMI 1640 with phenol red, daylight 30 min, read-out: IC50 for docetaxel with reference to control with same riboflavin content",0.264 nM
same,IC50,"Homo sapiens, Epithelial cell, 0.5 h, Plate No. 10; Riboflavin 594 nmol/L; medium c), daylight 30 min, read-out: IC50 for docetaxel normalized to medium control of medium with same riboflavin content",0.0627 nM
same,IC50,"Homo sapiens, Epithelial cell, 0.5 h, Plate No. 10; Riboflavin 1449 nmol/L; medium c) conventional RPMI 1640 with phenol red, daylight 30 min, read-out: IC50 for docetaxel with reference to control with same riboflavin content",0.136 nM
same,IC50,"Homo sapiens, Epithelial cell, 0.5 h, Plate No. 10; Riboflavin 1449 nmol/L; medium c), daylight 30 min, read-out: IC50 for docetaxel normalized to medium control of medium with same riboflavin content",0.0323 nM
same,IC50,"Homo sapiens, Epithelial cell, 0.5 h, Plate No. 11; Riboflavin 499 nmol/L; medium c) conventional RPMI 1640 with phenol red, bench lighting <30 min, read-out: IC50 for docetaxel with reference to control with same riboflavin content",0.225 nM
